# Values of other authors, collected in patent publication US20190185438A1 (Tonix Pharmaceuticals Holding Corp., priority 2016, published 2019).
# Like-named read-outs stand apart in the source and are kept apart here. Marks after values point to notes of the source that are not given here.
# Experiments:
# [1] = tested on: patients with fibromyalgia; details: 8 weeks
# [2] = tested on: patients with fibromyalgia
# [3] = 4 mg/day, week 14, 10-point scale, p <0.001
compound,measurement,setting,value
"CCOc1ccccc1O[C@@H](c1ccccc1)[C@@H]1CNCCO1 [Esreboxetine, (2S)-2-[(S)-(2-ethoxyphenoxy)-phenylmethyl]morpholine]",Tolerability,[1],generally well-tolerated
same,Pain scores compared to placebo,[1]; 2 mg/day raised to 8 mg/day or maximum tolerated dose,statistically significant reductions
same,Patients discontinued due to adverse events,[1]; placebo 2.3%,8.2%
same,GFI score compared to placebo,"[2]; 4 mg/day and 8 mg/day, 14 weeks, P=0.001",significant improvement
same,"GFI score, treatment difference",[2]; [3],−0.64* (10-point scale)
same,"Pain score, treatment difference",[2]; [3],−0.74* (10-point scale)
same,"FIQ score, treatment difference","[2]; 4 mg/day, week 14, 100-point scale, p <0.001",−7.12* (100-point
same,"PGIC, much improved or very much improved","[2]; 4 mg/day, week 14, p 0.002",41.7%**
same,Tolerability,[2]; 14 weeks,generally well tolerated
same,PGIC score compared to placebo,"[2]; all doses (4, 8, 10 mg/day), 14 weeks, P≤0.007",significant improvement
same,FIQ score compared to placebo,"[2]; all doses (4, 8, 10 mg/day), 14 weeks, P≤0.023",significant improvement
same,Pain score compared to placebo,"[2]; all doses (4, 8, 10 mg/day), 14 weeks, P≤0.025",significant improvement
